Earlier results in patent US20170108488A1, “Array and Method of Use” (Quick Biology, Inc., priority 2015, published 2017).

Key:
SB-2 tumor xenograft = details: in combination with the MEK inhibitor GSK1120212; NRAS mutant melanoma
BRAF = BRAF (Homo sapiens, UniProt P15056, V600E); details: melanomas with BRAF activating mutations
BRAF, sequence (P15056 whole entry V600E): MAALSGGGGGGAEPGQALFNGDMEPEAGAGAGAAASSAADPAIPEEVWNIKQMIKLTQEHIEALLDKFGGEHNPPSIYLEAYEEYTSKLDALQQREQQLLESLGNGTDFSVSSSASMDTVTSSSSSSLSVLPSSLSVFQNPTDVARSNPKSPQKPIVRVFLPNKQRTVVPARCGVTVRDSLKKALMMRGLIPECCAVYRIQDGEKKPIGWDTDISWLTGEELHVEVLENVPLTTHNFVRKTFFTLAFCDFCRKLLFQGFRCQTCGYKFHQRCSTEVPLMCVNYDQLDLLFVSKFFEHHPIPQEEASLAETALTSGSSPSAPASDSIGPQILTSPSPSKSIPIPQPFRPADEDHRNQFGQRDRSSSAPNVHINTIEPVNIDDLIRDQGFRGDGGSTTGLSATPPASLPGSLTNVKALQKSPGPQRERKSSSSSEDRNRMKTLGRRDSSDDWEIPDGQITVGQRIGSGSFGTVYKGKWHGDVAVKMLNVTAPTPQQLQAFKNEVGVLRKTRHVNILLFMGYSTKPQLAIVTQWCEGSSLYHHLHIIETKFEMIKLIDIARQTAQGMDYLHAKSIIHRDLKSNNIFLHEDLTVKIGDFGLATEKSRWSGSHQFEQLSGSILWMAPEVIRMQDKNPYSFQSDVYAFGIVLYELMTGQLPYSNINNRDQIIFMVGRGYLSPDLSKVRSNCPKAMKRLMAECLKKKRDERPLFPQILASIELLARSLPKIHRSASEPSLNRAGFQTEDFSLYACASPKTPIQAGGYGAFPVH

| success rate in melanomas (BRAF) | SMILES | tumor response in SB-2 tumor xenograft (SB-2 tumor xenograft) |
| --- | --- | --- |
|  | CC(=O)c1c(C)c2cnc(Nc3ccc(N4CCNCC4)cn3)nc2n(C2CCCC2)c1=O [PD-0332991] | tumor regression was achieved |
| high success rate | CCCS(=O)(=O)Nc1ccc(F)c(C(=O)c2c[nH]c3ncc(-c4ccc(Cl)cc4)cc23)c1F [PLX4032] |  |
